Experimental data as given in patent US20070149465A1, “COMPOSITIONS AND METHODS FOR PREVENTION AND TREATMENT OF CACHEXIA” (priority 2005, published 2007).

What was measured:
[1] = Aqueous stability of roxithromycin (% Purity by HPLC); assay type: physicochemical; details: 2 mg/mL, 40° C.
Experimental: Roxithromycin stability was determined for 2 mg/mL [roxithromycin] at 5, 25, and 40° C. as a function of pH and buffer (citrate) concentration. Roxithromycin %Purity was determined by area normalization using a reverse-phase HPLC method that meets the requirements of the EP Monograph. Solution pH values were determined per USP <791>.

[2] = system: AH-inoculated rats; assay: Rat AH130 Ascites Hepatoma Model of Cancer Cachexia, AH-inoculated rats; assay type: in vivo, female Wistar rats
Experimental: (§1) Following the method of Busquets et al (Busquets S, et al: Cancer Res 64:6725-31, 2004), female Wistar rats were inoculated (Day 0) intra-peritoneally (i.p.) with 2×10^7 cells/animal of Yoshida AH-130 ascites hepatoma (AH) cells. Control animals were inoculated with an equivalent amount of sterile saline solution. […] The animals were sacrificed on Day 5. Upon sacrifice, wet weights of heart and gastrocnemius muscle were determined. Carcass (after gastrocnemius, heart, and ascites removal) weight was also determined upon sacrifice.
(§2) Treatment Group=Inoculation Type/Vehicle, or Treatment Group=Inoculation Type/F(x)R(y) where, Inoculation Type is either AH or Saline, F is formoterol fumarate, R is roxithromycin, and the parenthetical values are formoterol fumarate and roxithromycin doses (i.p. in mg/kg).

[3] = system: Saline-inoculated rats; assay: Rat AH130 experiments, saline-inoculated control rats given drug; assay type: in vivo, female Wistar rats; details: for Carcass Weights Mean / Gastrocnemius Weights Mean / Heart Weights Mean: Saline, Day 5, normalized to 100 g Day 5 Total Body Weight
Experimental: as §1, §2

[4] = Exp 1 Group 4, AH, F 0, R 5 mg/kg i.p., Day 5, normalized to 100 g Day 5 Total Body Weight
[5] = Exp 4 Group 21, AH, F 0, R 50 mg/kg i.p., Day 5, sample weight normalized to 100 g Day 5 Total Body Weight
[6] = Experiment 4, AH/F(0)R(50) group
[7] = Exp 2 Group 9, F 0, R 5 mg/kg i.p.
[8] = Exp 3 Group 15, F 0, R 40 mg/kg i.p.

Roxithromycin % Purity By Area Normalization ([1]; citrate pH 5, 20 mM, 0 mo): 96% | Roxithromycin % Purity By Area Normalization ([1]; citrate pH 5, 20 mM, 0.3 mo): 74% | Roxithromycin % Purity By Area Normalization ([1]; citrate pH 5, 20 mM, 0.5 mo): 66% | Roxithromycin % Purity By Area Normalization ([1]; citrate pH 5, 20 mM, 0.9 mo): 60% | Roxithromycin % Purity By Area Normalization ([1]; citrate pH 5, 20 mM, 1.5 mo): 50% | Roxithromycin % Purity By Area Normalization ([1]; citrate pH 5, 20 mM, 2.6 mo): 36% | Roxithromycin % Purity By Area Normalization ([1]; citrate pH 5, 20 mM, 5.3 mo): 21% | Roxithromycin % Purity By Area Normalization ([1]; citrate pH 5, 50 mM, 0 mo): 92% | Roxithromycin % Purity By Area Normalization ([1]; citrate pH 5, 50 mM, 0.3 mo): 66% | Roxithromycin % Purity By Area Normalization ([1]; citrate pH 5, 50 mM, 0.5 mo): 55% | Roxithromycin % Purity By Area Normalization ([1]; citrate pH 5, 50 mM, 0.9 mo): 44% | Roxithromycin % Purity By Area Normalization ([1]; citrate pH 5, 50 mM, 1.5 mo): 28% | Roxithromycin % Purity By Area Normalization ([1]; citrate pH 5, 50 mM, 2.6 mo): 13% | Roxithromycin % Purity By Area Normalization ([1]; citrate pH 5, 50 mM, 5.3 mo): 3% | Roxithromycin % Purity By Area Normalization ([1]; citrate pH 5, 100 mM, 0 mo): 90% | Roxithromycin % Purity By Area Normalization ([1]; citrate pH 5, 100 mM, 0.3 mo): 60% | Roxithromycin % Purity By Area Normalization ([1]; citrate pH 5, 100 mM, 0.5 mo): 46% | Roxithromycin % Purity By Area Normalization ([1]; citrate pH 5, 100 mM, 0.9 mo): 31% | Roxithromycin % Purity By Area Normalization ([1]; citrate pH 5, 100 mM, 1.5 mo): 14% | Roxithromycin % Purity By Area Normalization ([1]; citrate pH 5, 100 mM, 2.6 mo): 4% | Roxithromycin % Purity By Area Normalization ([1]; citrate pH 6, 20 mM, 0 mo): 98% | Roxithromycin % Purity By Area Normalization ([1]; citrate pH 6, 20 mM, 0.3 mo): 95% | Roxithromycin % Purity By Area Normalization ([1]; citrate pH 6, 20 mM, 0.5 mo): 92% | Roxithromycin % Purity By Area Normalization ([1]; citrate pH 6, 20 mM, 0.9 mo): 89% | Roxithromycin % Purity By Area Normalization ([1]; citrate pH 6, 20 mM, 1.5 mo): 84% | Roxithromycin % Purity By Area Normalization ([1]; citrate pH 6, 20 mM, 2.6 mo): 79% | Roxithromycin % Purity By Area Normalization ([1]; citrate pH 6, 20 mM, 5.3 mo): 76% | Roxithromycin % Purity By Area Normalization ([1]; citrate pH 6, 50 mM, 0 mo): 98% | Roxithromycin % Purity By Area Normalization ([1]; citrate pH 6, 50 mM, 0.3 mo): 89% | Roxithromycin % Purity By Area Normalization ([1]; citrate pH 6, 50 mM, 0.5 mo): 82% | Roxithromycin % Purity By Area Normalization ([1]; citrate pH 6, 50 mM, 0.9 mo): 77% | Roxithromycin % Purity By Area Normalization ([1]; citrate pH 6, 50 mM, 1.5 mo): 71% | Roxithromycin % Purity By Area Normalization ([1]; citrate pH 6, 50 mM, 2.6 mo): 65% | Roxithromycin % Purity By Area Normalization ([1]; citrate pH 6, 50 mM, 5.3 mo): 61% | Roxithromycin % Purity By Area Normalization ([1]; citrate pH 6, 100 mM, 0 mo): 98% | Roxithromycin % Purity By Area Normalization ([1]; citrate pH 6, 100 mM, 0.3 mo): 85% | Roxithromycin % Purity By Area Normalization ([1]; citrate pH 6, 100 mM, 0.5 mo): 77% | Roxithromycin % Purity By Area Normalization ([1]; citrate pH 6, 100 mM, 0.9 mo): 72% | Roxithromycin % Purity By Area Normalization ([1]; citrate pH 6, 100 mM, 1.5 mo): 66% | Roxithromycin % Purity By Area Normalization ([1]; citrate pH 6, 100 mM, 2.6 mo): 58% | Roxithromycin % Purity By Area Normalization ([1]; citrate pH 6, 100 mM, 5.3 mo): 48%
SMILES: CC[C@H]1OC(=O)[C@H](C)[C@@H](O[C@H]2C[C@@](C)(OC)[C@@H](O)[C@H](C)O2)[C@H](C)[C@@H](O[C@@H]2O[C@H](C)C[C@H](N(C)C)[C@H]2O)[C@](C)(O)C[C@@H](C)/C(=N\OCOCCOC)[C@H](C)[C@@H](O)[C@]1(C)O [roxithromycin]
Carcass Weights Mean [2, 4]: 94.35 g | Gastrocnemius Weights Mean [2, 4]: 0.493 g | Heart Weights Mean [2, 4]: 0.320 g | Carcass Mean [2, 5]: 94.1 | Gastrocnemius Mean [2, 5]: 0.500 | Heart Mean [2, 5]: 0.338 | gastrocnemius muscle loss compared with AH/vehicle group ([2]; Experiment 1, AH/F(0)R(5) group): approximately the same amount | gastrocnemius muscle weights compared with AH/vehicle group [2, 6]: significantly larger | gastrocnemius weights compared with AH/F(1)R(0) group [2, 6]: essentially identical | gastrocnemius weights compared with AH/F(1)R(50) group [2, 6]: slightly less | muscle wasting associated with the AH rat model ([2]; summary of Experiments 1-4): prevents muscle wasting | preventing AH-induced gastrocnemius muscle loss, roxithromycin alone compared with formoterol fumarate alone ([2]; summary of Experiments 1-4): effective as formoterol fumarate alone | Carcass Weights Mean [3, 7]: 97.6 g | Gastrocnemius Weights Mean [3, 7]: 0.575 g | Heart Weights Mean [3, 7]: 0.390 g | Carcass Weights Mean [3, 8]: 96.5 g | Gastrocnemius Weights Mean [3, 8]: 0.529 g | Heart Weights Mean [3, 8]: 0.400 g | gastrocnemius muscle weights compared with Saline/vehicle group ([3]; Experiment 2, Saline/F(0)R(5) group): approximately the same | gastrocnemius muscle weights compared with Saline/vehicle control group ([3]; Experiment 3, Saline/F(0)R(40) group): not different
